From patent US20250090537A1, “ANTIVIRAL COMPOUNDS AND METHODS OF MAKING AND USING THE SAME” (Gilead Sciences, Inc., priority 2023, published 2025) come the findings set out here.

For one data set, the system named is RSV strain A2. The experiment in a line: RSV Cellomics assay for RSV A2 antiviral activity (EC50-RSV-Hep2-96-Cellomics). Particulars: human respiratory syncytial virus, HEp-2, 72 h; Hep2 cells infected with RSV strain A2, MOI=0.05, 3 days; Example B1. Type of data set: cell-based. On the procedure:
Example B1: RSV Cellomics Assay for RSV A2 Antiviral Activity (EC50-RSV-Hep2-96-Cellomics) 8×10^3 Hep2 cells are seeded into 96 well plates in 100 μL of media (DMEM supplemented with GlutaMAX, 10% FBS and Pen/Strep) and briefly spun at 50×g for 1 minute to attach cells. Cells were further allowed to attach with overnight incubation at 37° C.+5% CO2. The following day, the media was aspirated and 100 μL of fresh DMEM media containing 2% FBS was added. A three-fold dilution series of compounds of interest are then added to the plate using the Tecan D300e dispenser and the plate is normalized to the well with the highest volume of DMSO. The cells are next infected by adding 100 μL of media containing RSV strain A2 at an MOI=0.05 and the plates incubated for 3 days at 37° C.+5% CO2. Following the incubation, the media is removed, and the cells are washed once with 250 μL PBS and fixed with 250 μL ice-cold 100% methanol for 10 minutes at 4° C. The methanol is then removed and the plates air dried for 5 minutes and then washed once with 250 μL PBS to remove any residual methanol. The wells are then blocked 60 µL/well of BlockAid (B10710, Thermo-Fisher) for 1 hour at RT on rocker at which point the blocking buffer is carefully aspirated. Primary antibody against the RSV F protein (MAB 858-1) is then diluted 1:2000 in SuperBlock (37515, Thermo Fisher) and 50 μL of the primary antibody solution is added to each well. The plates are incubated at room temperature for 1 hour with gentle agitation and then washed with 250 μL of PBS-Tween 3 times. A goat anti-mouse AlexaFluor 647 conjugated secondary antibody (Sigma, A21235) is then diluted 1:2000 and Hoescht 33342 (H3570) at 1:1000 in SuperBlock and 50 μL added to the wells for 1 hour at 37° C. After incubation the antibody solution is aspirated, and the wells are then washed with 250 μL of PBS-Tween 3 times. To keep cells from drying out, 100 μL of PBS is added to each well and the plates are sealed with black plate seal. Fluorescence at the 647 nm wavelength is measured using a Cellomics CellInsight CX7 machine. Compound activity is determined as a percentage of the % positive cells (or average intensity) compared to DMSO treated RSV infected well controls following subtraction of uninfected controls. The EC50 values are then calculated using nonlinear regression analysis in GraphPad Prism.

Data set [1] in a line: MT4 CC50 cytotoxicity (CC50-MT4-384). The class given is cell-based. Particulars: human; uninfected MT-4 cells, 4-5 days, Cell-Titer Glo; Example G. On the procedure:
Example G. HEp-2 and MT4 CC50
Cytotoxicity of the compounds was determined in uninfected cells using the cell viability reagent in a similar fashion as described before for other cell types (Cihlar et al., ANTIMICROB AGENTS CHEMOTHER. 2008, 52(2):655-65). HEp-2 (1.5×10^3 cells/well) and MT-4 (2×10^3 cells/well) cells were plated in 384-well plates and incubated with the appropriate medium containing 3-fold serially diluted compound ranging from 15 nM to 100,000 nM. Cells were cultured for 4-5 days at 37° C. Following the incubation, the cells were allowed to equilibrate to 25° C., and cell viability was determined by adding Cell-Titer Glo viability reagent. The mixture was incubated for 10 min, and the luminescence signal was quantified using an Envision plate reader. Untreated cell and cells treated at 2 μM puromycin (Sigma, St. Louis, MO) serve as 100% and 0% cell viability control, respectively. The percent of cell viability was calculated for each tested compound concentration relative to the 0% and 100% controls and the CC50 value was determined by non-linear regression as a compound concentration reducing the cell viability by 50%.

The structures appear in SMILES notation. pEC50: −log10 of the molar value. Where only a bound is given, the exact number is not on record here.

For orientation: pEC50 means the negative decadic logarithm of the EC50, by convention in mol/L. A lower pEC50 goes with a high EC50. The term CC50 denotes the concentration at which the toxic effect on the cells reaches its halfway point. A low value points to greater toxicity to the cells. For `CCOC(=O)O[C@H]1[C@H](c2ccc3c(N)ncnn23)O[C@](C#N)(COC(=O)C(C)C)[C@H]1OC(=O)OCC` [Compound 3, ((2R,3S,4S,5S)-5-(4-aminopyrrolo[2,1-f][1,2,4]triazin-7-yl)-2-cyano-3,4-bis((ethoxycarbonyl)oxy)tetrahydrofuran-2-yl)methyl isobutyrate], the negative logarithm of the EC50 (pEC50) with RSV strain A2 was 4.44. Besides, in data set [1], the half-maximal cytotoxic concentration (CC50) is greater than 50 µM.

In the data set with RSV strain A2, `N#C[C@]1(CO)O[C@@H](c2ccc3c(N)ncnn23)[C@H](O)[C@@H]1O` [Compound 0, (2R,3S,4R,5S)-5-(4-aminopyrrolo[1,2-f][1,2,4]triazin-7-yl)-3,4-dihydroxy-2-(hydroxymethyl)tetrahydrofuran-2-carbonitrile, reference compound] had a negative logarithm of the EC50 (pEC50) of 5.01.

`CCOC(=O)O[C@H]1[C@H](c2ccc3c(N)ncnn23)O[C@](C#N)(COC(C)=O)[C@H]1OC(=O)OCC` [Compound 1, ((2R,3S,4S,5S)-5-(4-aminopyrrolo[2,1-f][1,2,4]triazin-7-yl)-2-cyano-3,4-bis((ethoxycarbonyl)oxy)tetrahydrofuran-2-yl)methyl acetate] had a pEC50 in the data set with RSV strain A2 of 4.72. Also, the CC50 in data set [1] was greater than 50 µM.

As to `CCOC(=O)O[C@H]1[C@H](c2ccc3c(N)ncnn23)O[C@](C#N)(COC(=O)CC(C)(C)C)[C@H]1OC(=O)OCC` [Compound 4, ((2R,3S,4S,5S)-5-(4-aminopyrrolo[2,1-f][1,2,4]triazin-7-yl)-2-cyano-3,4-bis((ethoxycarbonyl)oxy)tetrahydrofuran-2-yl)methyl 3,3-dimethylbutanoate], the negative logarithm of the EC50 (pEC50) in the data set on RSV strain A2 was 4.43. The CC50 in data set [1] was greater than 50 µM.
